Reference: US20170035894A1, “DRUG DELIVERY CONJUGATES FOR TREATING RESISTANT CANCER AND FOR USE IN COMBINATION THERAPY” (ENDOCYTE, INC., priority 2014, published 2017)

Columns and labels:
KB tumors = assay: Inhibition of tumor growth, s.c. KB tumors; format: in vivo, nu/nu mice; parameters: key to In vivo activity (e): CR=complete response, where tumor volume, as defined herein, during the observation period was zero for all test animals in the group; details: for CR (%) / Cures (%) / PR (%): TIW
Experimental: (§1) METHOD. Inhibition of Tumor Growth in Mice. Four to seven week-old mice (Balb/c or nu/nu strains) were purchased from Harlan Sprague Dawley, Inc. (Indianapolis, Ind.). Normal rodent chow contains a high concentration of folic acid (6 mg/kg chow); accordingly, test animals were maintained on a folate-free diet (Harlan diet #TD00434) for about 1 week before tumor implantation to achieve serum folate concentrations close to the range of normal human serum, and during the Method. For tumor cell inoculation, 1×10^6 M109 cells (a syngeneic lung carcinoma) in Balb/c strain, or 1×10^6 KB cells in nu/nu strain, in 100 μL were injected in the subcutis of the dorsal medial area (right axilla). Tumors were measured in two perpendicular directions every 2-3 days using a caliper, and their volumes were calculated as 0.5×L×W^2, where L=measurement of longest axis in mm and W=measurement of axis perpendicular to L in mm.
Dosing solutions were prepared fresh each day in PBS and administered through the lateral tail vein of the mice.
Tumor implantation. KB tumor cells were grown in folate-deficient RPMI 1640 with 5% FBS at 37° C. in a 5% CO2 humidified atmosphere. KB (1×10^6 cells per animal) tumor cells were inoculated subcutaneously […] post start of the folate deficient diet. Mice were dosed after the tumors reached between 100-150 mm3.
Preparation of dosing drug solutions. Dosing solutions were prepared when dosing began by weighing appropriate amounts of each compound, reconstituting in PBS, pH 7.4, sterile filtering the drug solution through a 0.22 µm PVDF syringe filter, and freezing aliquots for each day of dosing at −20° C.
Evaluation. Tumor size was monitored and body weight measured 3 times/week. Attention was given to gross animal morphology and behavior. Euthanasia was performed if the mice lost >20% of weight or when the tumors reached a size of 1500 mm3. Euthanasia was also performed at the researcher's discretion if mice lost a lot of weight in a short duration or when mice were approaching moribund conditions. Blood samples were collected by cardiac puncture from all viable animals from selected cohorts. Heart, lungs, liver, spleen, kidney, intestines, bone, brain and muscle were obtained immediately after euthanasia. The tissues were removed and stored in 10% neutral-buffered formalin.
For example, a 50% decrease in tumor volume from the initial measurement represents a partial response.
For example, a decrease in tumor volume where the measurements in two perpendicular directions are each about 2 mm or less represents a complete response.

[1] = test system: M109 (lung carcinoma) tumors; assay: Inhibition of tumor growth, s.c. M109 tumors; format: in vivo, nu/nu mice
Experimental: as §1
Test animals (5/group) ere injected i.v., generally three times a week TIW), for 3 weeks with varying doses, such as with 1 μmol/kg to 5 μmol/kg, of the drug delivery conjugate or with an equivalent dose volume of PBS (control), unless otherwise indicated. Dosing solutions were prepared fresh each day in PBS and administered through the lateral tail vein of the mice.

ST024 tumors = assay: Ovarian PDX tumor model; format: in vivo, Balb/c nu/nu mice; details: combined with Paclitaxel 15 mg/kg
Experimental: (§2) Female Balb/c nu/nu mice were fed ad libitum with folate-deficient chow (Harlan diet #TD01013) for the duration of the experiment. Primary human Endometrial model ST040, TNBC models 5T502 and ST738 and Ovarian model ST024 fragments (2-4 mm in diameter) were inoculated subcutaneously at the right flank of each mouse. Mice were randomized into 6 experimental groups of 5 or 3 mice each and test articles were injected through the lateral tail vein under sterile conditions in a volume of 200 μL of phosphate-buffered saline (PBS).
(§3) Growth of each s.c. tumor was followed by measuring the tumor two times per week until a volume of 1200 mm^3 was reached. Tumors were measured in two perpendicular directions using Vernier calipers, and their volumes were calculated as 0.5×L×W^2, where L=measurement of longest axis in mm and W=measurement of axis perpendicular to L in mm.

ST040 tumors = assay: Endometrial PDX tumor model; format: in vivo, Balb/c nu/nu mice; details: combined with Paclitaxel 15 mg/kg
Experimental: as §2, §3

[2] = EC1456 1.5 μmol/kg two times a week for two weeks
[3] = EC1456 3 μmol/kg once a week for two weeks

**Q.** Which results are given for `CCCC(=O)OCN(C(=O)[C@@H](NC(=O)[C@H]1CCCCN1C)C(C)CC)[C@H](C[C@@H](OC(C)=O)c1nc(C(=O)N[C@@H](Cc2ccc(O)cc2)C[C@H](C)C(=O)NNC(=O)OCCSSC[C@@H](NC(=O)[C@H](CCC(=O)NC[C@H](O)[C@@H](O)[C@H](O)[C@H](O)CO)NC(=O)[C@@H](CCC(=O)O)NC(=O)[C@H](CCC(=O)NC[C@H](O)[C@@H](O)[C@H](O)[C@H](O)CO)NC(=O)[C@@H](CCC(=O)O)NC(=O)[C@H](CCC(=O)NC[C@H](O)[C@@H](O)[C@H](O)[C@H](O)CO)NC(=O)CC[C@@H](NC(=O)c2ccc(NCc3cnc4nc(N)[nH]c(=O)c4n3)cc2)C(=O)O)C(=O)O)cs1)C(C)C` (stereo in doubt) [EC1456]?
**A.** CR (%) (KB tumors; 0.5 μmol/kg, 3 weeks): 0%; Cures (%) (KB tumors; 0.5 μmol/kg, 3 weeks): 0%; PR (%) (KB tumors; 0.5 μmol/kg, 3 weeks): 60%; CR (%) (KB tumors; 0.67 μmol/kg, 2 weeks): 20%; Cures (%) (KB tumors; 0.67 μmol/kg, 2 weeks): 0%; PR (%) (KB tumors; 0.67 μmol/kg, 2 weeks): 60%; CR (%) (KB tumors; 1.0 μmol/kg, 2 weeks): 60%; Cures (%) (KB tumors; 1.0 μmol/kg, 2 weeks): 60%; PR (%) (KB tumors; 1.0 μmol/kg, 2 weeks): 40%; CR (%) (KB tumors; 2.0 μmol/kg, 2 weeks): 100%; Cures (%) (KB tumors; 2.0 μmol/kg, 2 weeks): 100%; PR (%) (KB tumors; 2.0 μmol/kg, 2 weeks): 0%; efficacy of co-administration of EC1456 and carboplatin and paclitaxel (KB tumors; EC1456 1 μmol/kg BIW×2 + carboplatin 30 mg/kg BIW×2 + paclitaxel 10 mg/kg BIW×2): enhanced technical effect over EC1456 alone and the combination of carboplatin with paclitaxel; efficacy of co-administration of EC1456 and cisplatin (KB tumors; EC1456 1 μmol/kg BIW×2 + cisplatin 3 mg/kg BIW×3): enhanced technical effect over both monotherapies; efficacy of EC1456 alone compared to cisplatin (KB tumors; EC1456 1 μmol/kg BIW×2 vs cisplatin 3 mg/kg BIW×3): improved efficacy over cisplatin; efficacy of co-administration of EC1456 and bevacizumab (KB tumors; EC1456 1 μmol/kg TIW×2 + avastin 5 mg/kg BIW×2): enhanced technical effect over both monotherapies; efficacy of EC1456 alone compared to bevacizumab (KB tumors; EC1456 1 μmol/kg TIW×2 vs avastin 5 mg/kg BIW×2): improved efficacy over bevacizumab; cures, % of the mice (KB tumors; EC1456 added to the carboplatin/paclitaxel combination): 100%; PR's (KB tumors; EC1456 alone 1 μmol/kg twice a week for 2 weeks): 20%; efficacy of co-administration of EC1456 and topotecan (KB tumors; P-1606 KB tumors, EC1456 1 μmol/kg BIW×2 + topotecan 5 mg/kg BIW×2): enhanced technical effect over both monotherapies; efficacy of EC1456 alone compared to topotecan (KB tumors; P-1606 KB tumors, EC1456 1 μmol/kg BIW×2 vs topotecan 5 mg/kg BIW×2): improved efficacy over topotecan; efficacy of co-administration of EC1456 and docetaxel (KB tumors; P-1609 KB tumors, EC1456 1 μmol/kg TIW×5 + docetaxel 7 mg/kg BIW×3): enhanced technical effect over both monotherapies; efficacy of co-administration of EC1456 and topotecan (KB tumors; P-1609 KB tumors, EC1456 1 μmol/kg TIW×5 + topotecan 5 mg/kg TIW×5): enhanced technical effect over both monotherapies; efficacy of EC1456 alone compared to docetaxel (KB tumors; P-1609 KB tumors, EC1456 1 μmol/kg TIW×5 vs docetaxel 7 mg/kg BIW×3): improved efficacy over docetaxel; efficacy of EC1456 alone compared to topotecan (KB tumors; P-1609 KB tumors, EC1456 1 μmol/kg TIW×5 vs topotecan 5 mg/kg TIW×5): improved efficacy over topotecan; efficacy of co-administration of EC1456 and carboplatin (KB tumors; P-1635 KB tumors, EC1456 1 μmol/kg TIW + carboplatin 50 mg/kg TIW): enhanced technical effect over both monotherapies; efficacy of EC1456 alone compared to carboplatin (KB tumors; P-1635 KB tumors, EC1456 1 μmol/kg TIW×2 vs carboplatin 50 mg/kg TIW): improved efficacy over carboplatin; specific activity mediated by the folate receptor (KB tumors; co-dosed with excess comparator compound EC0923 (50 or 100 μmol/kg)): competable; anti-tumor activity / response (KB tumors; human KB tumors in mice, conjugated vs unconjugated drugs): dose responsive anti-tumor activity; complete response, test animals (KB tumors; intravenously 1 μmol/kg TIW, 2 wk): 4/4; In vivo activity (e) (KB tumors; subcutaneous KB tumor in nu/nu mice): CR; efficacy of co-administration of EC1456 and cisplatin ([1]; EC1456 2 μmol/kg TIW×2 + cisplatin 3 mg/kg BIW×2): enhanced technical effect over both monotherapies; efficacy of EC1456 alone compared to cisplatin ([1]; EC1456 2 μmol/kg TIW×2 vs cisplatin 3 mg/kg BIW×2): improved efficacy over cisplatin; animals exhibiting cures (ST024 tumors; EC1456 2 μmol/kg two times a week for two weeks): 100%; animals exhibiting cures (ST024 tumors; EC1456 4 μmol/kg once a week for two weeks): 100%; animal exhibiting cure (ST040 tumors; [2]): 1 animal; animals exhibiting PRs (ST040 tumors; [2]): 3 animals; animals exhibiting PR's (ST040 tumors; [3]): 2 animals; animals exhibiting stable disease (ST040 tumors; [3]): 3 animals
